Read-outs that look alike come from different tables or passages of the source.
Tests used:
[1] = test system: clonidine-induced aggressive behavior; test: Effect on Clonidine-Induced Aggressive Behavior (number of biting attacks during 30 minutes); assay type: in vivo, male ddY mice; conditions: po; for Number of the Biting Attacks (mean ± S.E.M.), Test Compound-Treated Group: 60 min before clonidine 20 mg/kg ip, 30 min count
Protocol: The effect of a test compound on the aggressive behavior induced by intraperitoneal administration of clonidine was investigated. […] The experiment was performed by using several groups of male ddY mice (weighing 20 to 25 g, Japan SLC), each group consisting of two mice. The test compound was suspended in injectable distilled water (Otsuka Pharmaceutical Co., Ltd.) containing Tween 80 [polyoxyethylene (20) sorbitan monooleate]. Clonidine hydrochloride (Sigma Co.) was dissolved in physiological saline solution (Otsuka Pharmaceutical Co., Ltd.). The test compound suspension and the control suspension were orally administered to separate groups of the mice (0.1 ml per 10 g of body weight). Sixty minutes after the oral administration of the test compound, clonidine hydrochloride (20 mg/kg) was intraperitoneally injected. The number of biting attacks during 30 minutes after clonidine treatment was counted. The effect of the compound was evaluated by comparing the average number of biting attacks of the test compound-administered groups with that of control groups (Statistical comparison: Student's t-test).

ddY-strain male mice = test: Acute Toxicity Test (minimum lethal dose, oral); assay type: in vivo; conditions: seven days after administration
Protocol: Test compounds were orally administered to groups of ddY-strain male mice weighing 20±1 g, each group consisting of three mice. Seven days after the administration, minimum lethal dose (MLD) of each compound was determined by observing the mortality.

[2] = Mus musculus, 10 mg/kg, read-out: Number of the Attacks of Test Compound-Treated Group/Number of the Attacks of Control Group
[3] = Mus musculus, 2.5 mg/kg, read-out: Number of the Attacks of Test Compound-Treated Group/Number of the Attacks of Control Group

Structure (SMILES)	Number of the Biting Attacks (mean ± S.E.M.), Test Compound-Treated Group ([1]; 10 mg/kg)	MLD (minimum lethal dose) (ddY-strain male mice) [mg/kg]	also measured
CCOc1ccc(/C=C/c2nc3c(c(=O)n(CC)c(=O)n3CC)n2C)cc1 [Compound 124, (E)-8-(4-Ethoxystyryl)-1,3-diethyl-7-methylxanthine]	50.5 ± 17.7	> 300	Number of the Biting Attacks (mean ± S.E.M.), Test Compound-Treated Group ([1]; 2.5 mg/kg): 85.8 ± 12.41
CCn1c(=O)c2c(nc(/C=C/c3ccc(OC)c(C)c3)n2C)n(CC)c1=O [Compound 175, (E) -1,3-Diethyl-8-(4-methoxy-3-methylstyryl)-7-methylxanthine]	49.1 ± 15.59	> 100	response vs control in vivo at 10 mg/kg [1, 2]: 790%
CCn1c(=O)c2c(nc(/C=C/c3ccc(OC)c(F)c3)n2C)n(CC)c1=O [Compound 173, (E)-1,3-Diethyl-8-(3-fluoro-4-methoxystyryl)-7-methylxanthine]	46.8 ± 14.89	> 100	response vs control in vivo at 10 mg/kg [1, 2]: 620%
CCCOc1ccc(/C=C/c2nc3c(c(=O)n(CC)c(=O)n3CC)n2C)cc1 [Compound 126, (E)-1,3-Diethyl-7-methyl-8-(4-propoxystyryl)xanthine]	80.0 ± 13.93	> 300	–
CCn1c(=O)c2c(nc(/C=C/c3ccc(OCc4ccccc4)cc3)n2C)n(CC)c1=O [Compound 185, (E)-8-(4-Benzyloxystyryl)-1,3-diethyl-7-methylxanthine]	46.9 ± 14.00	> 100	response vs control in vivo at 10 mg/kg [1, 2]: 620%
CCn1c(=O)c2c(nc(/C=C/c3ccc(OC)cc3OC)n2C)n(CC)c1=O [Compound 78, (E)-8-(2,4-Dimethoxystyryl)-1,3-diethyl-7-methylxanthine]	32.1 ± 7.31	> 300	response vs control in vivo at 10 mg/kg [1, 2]: 610%
CCn1c(=O)c2c(nc(/C=C/c3cccc(Br)c3)n2C)n(CC)c1=O [Compound 162, (E)-8-(3-Bromostyryl)-1,3-diethyl-7-methylxanthine]	17.9 ± 6.67	> 100	response vs control in vivo at 10 mg/kg [1, 2]: 850%
CCn1c(=O)c2c(nc(/C=C/c3ccc(F)cc3)n2C)n(CC)c1=O [Compound 150, (E)-1,3-Diethyl-8-(4-fluorostyryl)-7-methylxanthine]	42.1 ± 10.18	> 100	–
CCn1c(=O)c2c(nc(/C=C/c3cc(OC)c4c(c3)OCO4)n2C)n(CC)c1=O [Compound 179, (E)-1,3-Diethyl-8-(3-methoxy-4,5-methylenedioxystyryl)7-methylxanthine]	67.7 ± 16.08	> 100	–
CCn1c(=O)c2c(nc(/C=C/c3ccc(C)cc3)n2C)n(CC)c1=O [Compound 152, (E)-1,3-Diethyl-7-methyl-8-(4-methylstyryl)xanthine]	82.6 ± 23.07	> 100	response vs control in vivo at 10 mg/kg [1, 2]: 670%
CCCn1c(=O)c2c(nc(/C=C/c3ccc4c(c3)OCCO4)n2C)n(CCC)c1=O [Compound 18, (E)-8-[2-(1,4-Benzodioxan-6-yl)vinyl]-7-methyl-1,3-dipropylxanthine]	26.2 ± 7.32	> 300	Number of the Biting Attacks (mean ± S.E.M.), Test Compound-Treated Group ([1]; 2.5 mg/kg): 8.6 ± 3.74; response vs control in vivo at 2.5 mg/kg [1, 3]: 390%; response vs control in vivo at 10 mg/kg [1, 2]: 640%
C=CCn1c(=O)c2c(nc(/C=C/c3cc(OC)c(OC)c(OC)c3)n2C)n(CC=C)c1=O [Compound 7, (E)-1,3-Diallyl-7-methyl-8-(3,4,5-trimethoxystyryl)xanthine]	–	> 300	Number of the Biting Attacks (mean ± S.E.M.), Test Compound-Treated Group ([1]; 2.5 mg/kg): 40.1 ± 8.36; response vs control in vivo at 2.5 mg/kg [1, 3]: 640%
CCn1c(=O)c2c(nc(/C=C/c3cccc(F)c3C)n2C)n(CC)c1=O [Compound 181, (E)-1,3-Diethyl-8-(3-fluoro-2-methylstyryl)-7-methylxanthine]	49.5 ± 9.09	> 100	response vs control in vivo at 10 mg/kg [1, 2]: 800%
Cn1c(=O)c2[nH]cnc2n(C)c1=O [theophylline, reference compound]	18.6 ± 3.58	–	response vs control in vivo at 10 mg/kg ([1]; Mus musculus, read-out: Number of the Attacks of Test Compound-Treated Group/Number of the Attacks of Control Group): 520%
COc1cc(/C=C/c2nc3c(c(=O)n(C)c(=O)n3C)n2C)cc(OC)c1OC [Compound 2, (E)-8-(3,4,5-trimethoxystyryl)caffeine]	–	> 300	Number of the Biting Attacks (mean ± S.E.M.), Test Compound-Treated Group ([1]; 1.25 mg/kg): 29.0 ± 7.9; response vs control in vivo at 1.25 mg/kg ([1]; Mus musculus, 1.25 mg/kg, read-out: Number of the Attacks of Test Compound-Treated Group/Number of the Attacks of Control Group): 470%
CCCn1c(=O)c2c(nc(/C=C/c3ccc(OCC)cc3)n2C)n(CCC)c1=O [Compound 49, (E)-8-(4-Ethoxystyryl)-7-methyl-1,3-dipropylxanthine]	81.5 ± 13.97	> 300	–
CCn1c(=O)c2[nH]c(/C=C/c3cccc([N+](=O)[O-])c3)nc2n(CC)c1=O [Compound 159, (E)-1,3-Diethyl-8-(3-nitrostyryl)xanthine]	–	> 100	–

Structure (SMILES)	Number of the Biting Attacks (mean ± S.E.M.), Test Compound-Treated Group ([1]; 10 mg/kg)	MLD (minimum lethal dose) (ddY-strain male mice) [mg/kg]	also measured
CCn1c(=O)c2[nH]c(/C=C/c3ccc(OC)cc3OC)nc2n(CC)c1=O [Compound 77, (E)-8-(2,4-Dimethoxystyryl)-1,3-diethylxanthine]	–	> 100	–
CCn1c(=O)c2c(nc(/C=C/c3ccc(Br)cc3)n2C)n(CC)c1=O [Compound 142, (E)-8-(4-Bromostyryl)-1,3-diethyl-7-methylxanthine]	–	> 100	–
COc1ccc(/C=C/c2nc3c(c(=O)n(C)c(=O)n3C)n2C)c(Cl)c1OC [Compound 108, (E)-8-(2-Chloro-3,4-dimethoxystyryl)caffeine]	–	> 300	–
CCn1c(=O)c2c(nc(/C=C/c3ccc(O)c(C)c3C)n2C)n(CC)c1=O [Compound 194, (E)-1,3-Diethyl-8-(4-hydroxy-2,3-dimethylstyryl)-7-methylxanthine]	–	> 100	–
COc1ccc(/C=C/c2nc3c([nH]2)c(=O)n(C)c(=O)n3C)c(OC)c1C [Compound 103, (E)-8-(2,4-Dimethoxy-3-methylstyryl)theophylline]	–	> 100	–
CCCn1c(=O)c2c(nc(/C=C/c3ccc(OC)c(Br)c3)n2C)n(CCC)c1=O [Compound 57, (E)-8-(3-Bromo-4-methoxystyryl)-7-methyl-1,3-dipropylxanthine]	–	> 100	–
COc1ccc(/C=C/c2nc3c([nH]2)c(=O)n(C)c(=O)n3C)c(C)c1C [Compound 93, (E)-8-(4-Methoxy-2,3-dimethylstyryl)theophylline]	–	> 100	–
CCCn1c(=O)c2[nH]c(/C=C/c3ccc(OC)cc3OC)nc2n(CCC)c1=O [Compound 25, (E)-8-(2,4-Dimethoxystyryl)-1,3-dipropylxanthine]	–	> 100	–
CCCn1c(=O)c2c(nc(/C=C/c3ccc4c(c3)OCO4)n2C)n(CCC)c1=O [Compound 20, (E)-7-Methyl-8-(3,4-methylenedioxystyryl)-1,3-dipropylxanthine]	–	> 300	–
CCCn1c(=O)c2c(nc(/C=C/c3cc(OC)c(OCc4ccccc4)c(OC)c3)n2C)n(CCC)c1=O [Compound 28, (E)-8-(4-Benzyloxy-3,5-dimethoxystyryl)-7-methyl-1,3-dipropylxanthine]	–	> 100	–
CCCn1c(=O)c2nc(/C=C/c3ccc(OC)c(OC)c3OC)[nH]c2n(CCC)c1=O [Compound 21, (E)-1,3-Dipropyl-8-(2,3,4-trimethoxystyryl)xanthine]	–	> 300	–
COc1cccc(/C=C/c2nc3c(=O)n(C)c(=O)n(C)c3[nH]2)c1OC [Compound 97, (E)-8-(2,3-Dimethoxystyryl)theophylline]	–	> 100	–
CCCn1c(=O)c2c(nc(/C=C/c3ccc(OC)cc3OC)n2C)n(CCC)c1=O [Compound 26, (E)-8-(2,4-Dimethoxystyryl)-7-methyl-1,3-dipropylxanthine]	–	> 300	–
COc1ccc(/C=C/c2nc3c(c(=O)n(C)c(=O)n3C)n2C)c(OC)c1C [Compound 104, (E)-8-(2,4-Dimethoxy-3-methylstyryl)caffeine]	–	> 100	–
COc1cccc(/C=C/c2nc3c(c(=O)n(C)c(=O)n3C)n2C)c1OC [Compound 98, (E)-8-(2,3-Dimethoxystyryl)caffeine]	–	> 300	–
CCCn1c(=O)c2[nH]c(/C=C/c3ccc(OC)c(Br)c3)nc2n(CCC)c1=O [Compound 56, (E)-8-(3-Bromo-4-methoxystyryl)-1,3-dipropylxanthine]	–	> 100	–

Source: patent publication US5543415A, “Antidepressants” (Kyowa Hakko Kogyo Co., Ltd., priority 1992, dated 1996)
